Results taken from patent US8969080B2, “Remedy for the treatment of cardio-vascular diseases or disorders” (Max-Delbrueck-Centrum fuer Molekulare Medizin, priority 2007, dated 2015).

Assays:
[1] = test system: β-catenin dependent transcription; assay: topflash reporter gene assay in isolated neonatal rat cardiomyocytes; assay type: cell-based; settings: co-transfection of KLF15; reporter activated by stabilized β-catenin (ΔN-catenin)
Procedure: (§1) The transcription factor Krüppel-like factor (KLF) 15 inhibits β-catenin dependent transcription in isolated cardiomyocytes through a direct interaction of its C-terminal end as shown by topflash reporter gene assay and immunoprecipitation assays (FIG. 9 A). Isolated neonatal rat cardiomyocytes were used as a model system to analyze factors inhibiting β-catenin dependent gene regulation. β-catenin dependent transcription was measured by reporter gene assay. […] Concerning the molecular mechanisms, KLF15 mutants were analyzed concerning their direct protein interaction to β-catenin employing immunoprecipitation analysis (FIG. 9 B). The interacting domain was mapped to the N-terminus between amino acids 1 and 45 (FIG. 9 B), where as the C-terminus was also required for the transcriptional repressive function.
(§2) Inhibition of β-catenin-dependent gene transcription by KLF15. (A) Reporter gene assay in isolated neonatal cardiomyocytes showing activation of the topflash reporter gene by stabilized β-catenin (ΔN-catenin; dN). A dose-dependent inhibition is observed by co-transfection of KLF15.

β-catenin = molecular target: T1, β-catenin (Homo sapiens, UniProt P35222); assay: co-immunoprecipitation of KLF15 and KLF15 mutants with β-catenin; assay type: binding; settings: full length KLF15
T1 sequence (P35222 1-781): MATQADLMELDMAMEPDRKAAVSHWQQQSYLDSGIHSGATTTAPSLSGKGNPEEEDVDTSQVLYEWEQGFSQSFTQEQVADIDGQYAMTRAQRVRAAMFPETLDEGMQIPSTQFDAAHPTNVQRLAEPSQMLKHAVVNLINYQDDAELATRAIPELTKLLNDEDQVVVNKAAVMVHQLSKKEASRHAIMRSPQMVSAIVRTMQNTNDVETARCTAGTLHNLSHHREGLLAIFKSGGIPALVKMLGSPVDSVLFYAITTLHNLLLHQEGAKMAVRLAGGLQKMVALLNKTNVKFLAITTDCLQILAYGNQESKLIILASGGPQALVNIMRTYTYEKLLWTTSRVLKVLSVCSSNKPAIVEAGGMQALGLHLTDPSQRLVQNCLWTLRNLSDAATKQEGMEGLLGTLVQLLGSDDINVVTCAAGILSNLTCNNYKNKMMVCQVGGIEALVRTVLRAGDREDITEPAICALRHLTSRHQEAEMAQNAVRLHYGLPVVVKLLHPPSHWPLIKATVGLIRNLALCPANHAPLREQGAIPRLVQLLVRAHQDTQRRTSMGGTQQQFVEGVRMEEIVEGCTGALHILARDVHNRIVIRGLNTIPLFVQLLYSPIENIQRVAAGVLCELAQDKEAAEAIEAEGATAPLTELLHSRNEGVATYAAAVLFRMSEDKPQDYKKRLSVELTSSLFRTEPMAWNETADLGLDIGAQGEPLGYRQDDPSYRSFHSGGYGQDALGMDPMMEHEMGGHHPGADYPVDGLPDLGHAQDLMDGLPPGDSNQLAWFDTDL
Procedure: as §1, §2

mice = assay: AngII infusion by minipump in control, β-catenin depleted and β-catenin stabilized mice; assay type: in vivo, mouse
Procedure: After 12 days' AngII infusion at pressure doses (1.4 μg Kg^−1 min^−1), control animals developed hypertrophy as judged by echocardiography, gene regulation, in vivo cross sectional area, and heart/body weight ratio as described before (FIG. 4). From the M-mode echocardiography imaging, a thickened inter-ventricular septum and LV posterior wall after AngII was identified in control animals (FIG. 4A). […] LV wall thickening was identical in β-catenin heart-depleted animals and control littermates after AngII (data not shown). […] Moreover, AngII increased gene expression of several hypertrophy gene markers in both control and b-catenin heart-depleted animals with the exception of β-myosin heavy chain (FIG. 4 C). A lack of β-MHC upregulation in response to stress stimuli might be indicative of adaptive cardiac remodeling preserving LV-function as described before (van Rooij E et al., Circ Res. 2004; 94:18e-26).
The effects of 12 days' AngII infusion in mice with cardiac stabilized β-catenin (β-cat^Δex3) were opposite in kind to those of mice with β-catenin heart-depletion. […] ANP (β-cat^Δex3 0.4±0.15; β-cat^Δex3+AngII 1.03±0.15; p<0.01) and BNP (β-cat^Δex3 0.43±0.24; β-cat^Δex3+AngII 1.4±0.27; p<0.01) expression was induced by AngII but final values were generally lower than in control mice (ANP: CT+AngII 2.3±0.8; BNP: CT+AngII 2.6±0.6).
As expected, fractional shortening increased in control mice after AngII treatment (31.1±1.6% to 36.2±1.6%). However, β-catenin heart-stabilization led to reduced fractional shortening after AngII infusion (34.7±2.9% to 22.4±4.5%, p<0.05). These absolute values in animals aged 10 to 14 weeks are identical to a serial analysis of the age-dependant changes employing the same high-resolution echo techniques as used for these studies. […] These absolute values are similar to other reports, i.e. rates of apoptotic cardiomyocytes after trans-aortic constriction. Moreover, no significant differences concerning fibrosis occurring focally throughout the LV wall was observed when both transgenic models were to their respective controls.
Representative examples of M-mode echocardiograms (not shown), quantification of echocardiographic parameters and heart/body weight from control and β-cat^Δex3-6 mice with and without AngII infusion are shown (n≧6 for each group) (B) Myocyte cross-sectional area increases in both control and β-catenin depleted β-cat^Δex3-6 mice as measured by WGA-FITC staining of cardiac tissue sections and quantification from control or β-cat^Δex3-6 mice with AngII infusion (data not shown). At least 500 cells were measured for each animal, n≧4 mice per group. (C) Significant upregulation of ANP, BNP and α-sarcomeric actin normalized to GAPDH after AngII in control and β-catenin depleted β-cat^Δex3-6 mice. Quantification by real-time PCR of whole heart RNA samples from control (white) or β-cat^Δex3-6 (grey) mice without (open bars) and with (shaded bars) AngII infusion. *=P<0.05, **=P<0.01, ***=P<0.001.
(A) Attenuation of cardiac hypertrophy after AngII in β-catenin stabilized mice is accompanied by significant deterioration of systolic function as measured by fractional shortening (right bar graph). Representative examples of M-mode echocardiograms and quantification from control or β-cat^Δex3 mice with and without AngII infusion. Quantification of echocardiographic wall size and fractional shortening from control or β-cat^Δex3 mice with and without AngII infusion. *=P<0.05, **=P<0.01. (B) Increase of myocyte cross-sectional area after AngII is attenuated in β-catenin stabilized β-cat^Δex3 mice (data not shown). At least 400 cells counted per animal, mice per group. ***=P<0.001. (C) Rates of TUNEL/α-sarcomeric actin/DAPI-positive cardiomyocytes after AngII infusion decrease after β-catenin stabilization in β-cat^Δex3. In addition to the TUNEL-assay, slides were co-stained with α-sarcomeric actin and DAPI in control mice and β-cat^Δex3 mice before and after AngII stimulation (data not shown).

Substance | topflash reporter gene activation [1] | direct protein interaction to β-catenin (immunoprecipitation) (β-catenin) | cardiomyocyte size following AngII treatment (mice; CT animals of the β-catenin stabilization model) | TUNEL-positive cells after AngII (mice; CT of the β-catenin depletion model, baseline 0.004±0.004) | ANP expression (mice; CT+AngII) | BNP expression (mice; CT+AngII) | TUNEL/α-sarcomeric actin/DAPI-positive cells after AngII (mice; CT+AngII, β-catenin stabilization model) | Axin2 levels (whole heart RNA) (mice; both control and β-catenin stabilized mice) | cellular cross sectional area (mice; control mice of the β-catenin depletion model, after 12 days' AngII infusion) | fractional shortening after AngII (mice; control mice, baseline 31.1±1.6%) | Tbx5 gene expression (mice; control mice, effect lost in β-catenin stabilized mice) | ANP expression (mice; β-cat^Δex3+AngII, baseline 0.4±0.15) | BNP expression (mice; β-cat^Δex3+AngII, baseline 0.43±0.24) | TUNEL-positive cells after AngII (mice; β-cat^Δex3-6 mice, baseline 0.112±0.044%) | cardiomyocyte size following AngII treatment (mice; β-cat^Δex3 mice) | TUNEL/α-sarcomeric actin/DAPI-positive cells after AngII (mice; β-cat^Δex3 mice, baseline 0.058±0.027%) | cellular cross sectional area (mice; β-catenin depleted mice (β-cat^Δex3-6), after 12 days' AngII infusion 1.4 μg Kg^−1 min^−1) | fractional shortening after AngII (mice; β-catenin heart-stabilized mice, baseline 34.7±2.9%)
KLF15: transcription factor Krüppel-like factor 15, co-transfected; inhibits β-catenin dependent transcription | inhibit topflash reporter gene activation dose dependendly | interaction | – | – | – | – | – | – | – | – | – | – | – | – | – | – | – | –
Angiotensin II (DRVYIHPF; Angiotensin-2; UniProt P01019 25-32, looked up) [AngII, hypertrophic stress stimulus infused by minipump] | – | – | 9.07×10^7±0.14×10^7 | 0.09±0.02% | 2.3±0.8 | 2.6±0.6 | 0.297±0.025% | increased | 12.3×10^7±0.19×10^7 a.u. | 36.2±1.6% | significantly downregulated | 1.03±0.15 | 1.4±0.27 | 0.2±0.13% | 8.14×10^7±0.14×10^7 | 0.120±0.049% | 12.1×10^7±0.24×10^7 a.u. | 22.4±4.5%
